# Measurements reported in publication PMC7020476, “New Insights into the Type II Toxins from the Sea Anemone Heteractis crispa” (Toxins, 2020).
# Entries after “also recorded” stand apart in the source; their conditions may differ. Like-named read-outs stand apart in the source and are kept apart here. Bridges are numbered along the chain shown (N, C = ends). Roman numbers before positions name the chains, in order. Where no end group is shown, it is not given here.
# Columns and labels:
# mNaV1.6 = target: T1, mNaV1.6 (Mus musculus, UniProt Q9WTU3); test: Two-electrode voltage-clamp of NaV1.6 expressed in Xenopus laevis oocytes; assay type: cell-based; settings: for EC50: amplitude of toxin-induced effect at 30 ms (I30ms), Hill fit, Xenopus oocytes, means ± sem, n ≥ 5, read-out: half-maximal effective concentration (EC50), NaV1.6
# T1 construct: expressed in transfected cells; host or cells: Xenopus laevis oocytes injected with cRNA
# Excerpt: (§1) For the expression of NaV channels (hNaV1.1, rNaV1.2, rNaV1.3, rNaV1.4, hNaV1.5, mNaV1.6, rNaV1.8, the invertebrate channels BgNaV1.1, VdNaV1, and the auxiliary subunits rβ1, hβ1, and TipE) in Xenopus oocytes, the linearized plasmids were transcribed using the T7 or SP6 mMessage-mMachine Transcription Kit (Thermo Fisher Scientific, Waltham, MA, USA). The harvesting of stage V–VI oocytes from anesthetized female X. laevis frogs was previously described with a protocol adjustment in which the frogs were anesthetized by placement in 0.1% tricaine (amino benzoic acid ethyl ester; Millipore Sigma, Burlington, MA, USA) solution. Oocytes were injected with 50 nL of cRNA at a concentration of 1 ng/nL using a microinjector (Drummond Scientific Company, Broomall, PA, USA). The oocytes were incubated in a solution containing (mM) the following: NaCl, 96; KCl, 2; CaCl2, 1.8; MgCl2, 2; and HEPES, 5 (pH 7.4). This solution was supplemented with 50 mg/L gentamicin sulfate.
# (§2) Two-electrode voltage-clamp recordings were performed at room temperature (18–22 °C) using a GeneClamp 500 amplifier (Molecular Devices, San Jose, CA, USA) controlled by a pClamp data acquisition system (Axon Instruments, Union City, CA, USA). Whole-cell currents from oocytes were recorded 1–4 d after mRNA injection. Bath solution composition was (mM) as follows: NaCl, 96; KCl, 2; CaCl2, 1.8; MgCl2, 2; and HEPES, 5 (pH 7.4). Voltage and current electrodes were filled with 3 M KCl. The resistances of both electrodes were kept between 0.8 and 1.5 MΩ. The elicited currents were filtered at 1 kHz and sampled at 20 kHz by using a 4-pole low-pass Bessel filter. Leak subtraction was performed using a -P/4 protocol.
# (§3) For the electrophysiological analysis of toxins, a number of protocols were applied from a holding potential of −90 mV with a start-to-start frequency of 0.2 Hz. Na^+ current traces were evoked by 100-ms depolarizations to Vmax (the voltage corresponding to maximal Na^+ current in control conditions). The current–voltage relationships were determined by 50-ms step depolarizations between −90 and 70 mV, using 5 mV increments. The Na^+ conductance (gNa) was calculated from the currents according to Ohm’s law: gNa = INa/(V − Vrev), where INa represents the Na^+ current peak amplitude at a given test potential V, and Vrev is the reversal potential. The values of gNa were plotted as a function of voltage and fitted using the Boltzmann function: gNa/gmax = [1 + (exp(Vg − V)/k)] −1, where gmax represents maximal gNa, Vg is the voltage corresponding to half-maximal conductance, and k is the slope factor. Toxin–induced effects on the steady–state inactivation were investigated by using a standard two-step protocol. […] I30ms/Ipeak was measured at the same test voltage after addition of the toxin. […]
# mice [1] = settings: cited from earlier work
# Excerpt: The only difference observed within our electrophysiological experiments that may underlie this phenomenon is a different activity of both toxins on NaV1.2 and NaV1.3 subtypes (Figure 5, Table 2). Even though tetrodotoxin (TTX)-sensitive brain-type sodium channel isoforms NaV1.1–NaV1.3 and NaV1.6 are the main channels e ...
# mice [2] = test: Toxicity in mice; assay type: in vivo, adult male CD-1 mice; settings: intraperitoneal, six animals per sample, 24 hours
# Procedure: The care and use of animals were performed in an agreement with the requirements of local and international legislation as well as of the Directive 2010/63/EU for animal experiments.
# Adult male CD-1 mice weighing 20–22 g were kept at room temperature with a 12-h light/dark cycle and with ad libitum access to food and water. Each animal was used only once and was euthanized in the CO2 chamber immediately after completion of the experiment. Animal procedures were approved by the Animal Care and Use Committee of the PIBOC FEB RAS.
# The peptides (0.15–300 μg) were dissolved in 100 μL of sterile saline (0.9% NaCl) and injected intraperitoneally. Six animals were used per sample. To assess peptide toxicity, the maximum non-toxic dose was determined as an amount (mg) of the tested peptide per kg of the mouse weight, at which there was no observed toxic or adverse effect within 24 hours.
# rNaV1.2 = target: T2, rNaV1.2 (Rattus norvegicus, UniProt P04775); test: Two-electrode voltage-clamp of NaV1.2 expressed in Xenopus laevis oocytes; assay type: cell-based; settings: for EC50: read-out: half-maximal effective concentration (EC50), NaV1.2
# T2 construct: expressed in transfected cells; host or cells: Xenopus laevis oocytes injected with cRNA
# T2 sequence (P04775 whole entry): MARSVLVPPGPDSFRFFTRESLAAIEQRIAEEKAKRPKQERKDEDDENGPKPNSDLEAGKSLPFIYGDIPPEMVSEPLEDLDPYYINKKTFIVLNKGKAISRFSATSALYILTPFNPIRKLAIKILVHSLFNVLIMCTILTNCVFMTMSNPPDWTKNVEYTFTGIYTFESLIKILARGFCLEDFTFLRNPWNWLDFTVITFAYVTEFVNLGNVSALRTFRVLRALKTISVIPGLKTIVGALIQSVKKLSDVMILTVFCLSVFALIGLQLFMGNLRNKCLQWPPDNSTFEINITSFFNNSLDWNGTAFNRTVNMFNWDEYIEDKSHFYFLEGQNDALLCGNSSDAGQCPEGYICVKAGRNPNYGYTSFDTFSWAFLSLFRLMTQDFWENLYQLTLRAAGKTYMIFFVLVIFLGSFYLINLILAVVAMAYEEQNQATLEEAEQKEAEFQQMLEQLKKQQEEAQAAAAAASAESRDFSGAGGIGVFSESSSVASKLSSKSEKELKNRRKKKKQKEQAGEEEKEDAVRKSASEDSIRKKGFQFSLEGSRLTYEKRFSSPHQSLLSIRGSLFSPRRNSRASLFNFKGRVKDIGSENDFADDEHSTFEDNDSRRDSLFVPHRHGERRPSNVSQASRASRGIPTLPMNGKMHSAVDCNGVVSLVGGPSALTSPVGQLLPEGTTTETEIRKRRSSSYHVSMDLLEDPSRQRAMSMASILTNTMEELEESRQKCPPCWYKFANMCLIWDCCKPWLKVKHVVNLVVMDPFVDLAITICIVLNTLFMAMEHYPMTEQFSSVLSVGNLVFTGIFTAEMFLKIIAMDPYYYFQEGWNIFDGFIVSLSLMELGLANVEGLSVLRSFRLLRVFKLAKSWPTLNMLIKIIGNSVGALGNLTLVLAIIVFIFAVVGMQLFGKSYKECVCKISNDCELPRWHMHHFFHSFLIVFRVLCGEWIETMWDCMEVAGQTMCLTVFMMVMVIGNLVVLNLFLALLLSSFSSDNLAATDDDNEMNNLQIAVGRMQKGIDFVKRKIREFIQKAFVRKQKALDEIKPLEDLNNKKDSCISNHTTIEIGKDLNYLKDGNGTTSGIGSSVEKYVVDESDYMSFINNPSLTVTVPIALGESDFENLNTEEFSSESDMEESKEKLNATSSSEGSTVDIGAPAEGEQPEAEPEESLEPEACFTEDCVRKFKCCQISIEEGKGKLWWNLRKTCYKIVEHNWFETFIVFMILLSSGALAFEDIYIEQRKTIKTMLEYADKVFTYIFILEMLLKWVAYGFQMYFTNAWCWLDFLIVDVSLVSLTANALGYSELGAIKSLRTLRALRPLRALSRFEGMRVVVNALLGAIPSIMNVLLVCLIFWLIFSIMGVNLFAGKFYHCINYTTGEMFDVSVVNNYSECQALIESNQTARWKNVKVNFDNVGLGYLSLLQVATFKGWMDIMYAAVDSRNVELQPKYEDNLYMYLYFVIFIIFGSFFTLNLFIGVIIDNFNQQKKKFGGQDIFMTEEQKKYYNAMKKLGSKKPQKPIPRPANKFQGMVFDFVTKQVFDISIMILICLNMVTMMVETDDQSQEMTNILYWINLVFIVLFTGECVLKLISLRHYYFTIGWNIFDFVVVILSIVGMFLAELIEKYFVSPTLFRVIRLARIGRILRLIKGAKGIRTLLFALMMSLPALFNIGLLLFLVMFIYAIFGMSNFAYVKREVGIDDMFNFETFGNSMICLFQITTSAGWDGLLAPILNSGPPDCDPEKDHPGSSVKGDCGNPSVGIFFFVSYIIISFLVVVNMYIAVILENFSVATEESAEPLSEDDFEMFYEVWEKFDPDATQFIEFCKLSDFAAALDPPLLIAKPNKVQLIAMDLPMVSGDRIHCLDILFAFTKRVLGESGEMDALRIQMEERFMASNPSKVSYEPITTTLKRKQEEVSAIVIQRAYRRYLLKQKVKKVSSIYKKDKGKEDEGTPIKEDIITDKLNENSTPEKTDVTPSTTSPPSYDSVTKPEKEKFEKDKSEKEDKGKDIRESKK
# Excerpt: as §1, §2
# as §3, with “protocol. In this protocol, 100 ms conditioning 5 mV step prepulses ranging from −90 to 70 mV were followed by a 50-ms test pulse to −30 or −10 mV. Data were normalized to the maximal Na^+ current amplitude, plotted against prepulse potential, and fitted by using the Boltzmann function: INa/Imax = {(1 − C)/(1 + exp[(V − Vh)/k)]} + C, where Imax is the maximal INa, Vh is the voltage corresponding to half-maximal inactivation, V is the test voltage, k is the slope factor, and C is a constant representing a non-inactivating persistent fraction (close to 0 in control).” for “protocol.”
# BgNaV1 = BgNaV1 (Blattella germanica, UniProt O01306); test: Two-electrode voltage-clamp of BgNaV1 expressed in Xenopus laevis oocytes; assay type: cell-based, insect; settings: for EC50: amplitude of toxin-induced effect at 30 ms (I30ms), Hill fit, Xenopus oocytes, means ± sem, n ≥ 5, read-out: half-maximal effective concentration (EC50), BgNaV1
# Chain of BgNaV1 (O01306 1-2031): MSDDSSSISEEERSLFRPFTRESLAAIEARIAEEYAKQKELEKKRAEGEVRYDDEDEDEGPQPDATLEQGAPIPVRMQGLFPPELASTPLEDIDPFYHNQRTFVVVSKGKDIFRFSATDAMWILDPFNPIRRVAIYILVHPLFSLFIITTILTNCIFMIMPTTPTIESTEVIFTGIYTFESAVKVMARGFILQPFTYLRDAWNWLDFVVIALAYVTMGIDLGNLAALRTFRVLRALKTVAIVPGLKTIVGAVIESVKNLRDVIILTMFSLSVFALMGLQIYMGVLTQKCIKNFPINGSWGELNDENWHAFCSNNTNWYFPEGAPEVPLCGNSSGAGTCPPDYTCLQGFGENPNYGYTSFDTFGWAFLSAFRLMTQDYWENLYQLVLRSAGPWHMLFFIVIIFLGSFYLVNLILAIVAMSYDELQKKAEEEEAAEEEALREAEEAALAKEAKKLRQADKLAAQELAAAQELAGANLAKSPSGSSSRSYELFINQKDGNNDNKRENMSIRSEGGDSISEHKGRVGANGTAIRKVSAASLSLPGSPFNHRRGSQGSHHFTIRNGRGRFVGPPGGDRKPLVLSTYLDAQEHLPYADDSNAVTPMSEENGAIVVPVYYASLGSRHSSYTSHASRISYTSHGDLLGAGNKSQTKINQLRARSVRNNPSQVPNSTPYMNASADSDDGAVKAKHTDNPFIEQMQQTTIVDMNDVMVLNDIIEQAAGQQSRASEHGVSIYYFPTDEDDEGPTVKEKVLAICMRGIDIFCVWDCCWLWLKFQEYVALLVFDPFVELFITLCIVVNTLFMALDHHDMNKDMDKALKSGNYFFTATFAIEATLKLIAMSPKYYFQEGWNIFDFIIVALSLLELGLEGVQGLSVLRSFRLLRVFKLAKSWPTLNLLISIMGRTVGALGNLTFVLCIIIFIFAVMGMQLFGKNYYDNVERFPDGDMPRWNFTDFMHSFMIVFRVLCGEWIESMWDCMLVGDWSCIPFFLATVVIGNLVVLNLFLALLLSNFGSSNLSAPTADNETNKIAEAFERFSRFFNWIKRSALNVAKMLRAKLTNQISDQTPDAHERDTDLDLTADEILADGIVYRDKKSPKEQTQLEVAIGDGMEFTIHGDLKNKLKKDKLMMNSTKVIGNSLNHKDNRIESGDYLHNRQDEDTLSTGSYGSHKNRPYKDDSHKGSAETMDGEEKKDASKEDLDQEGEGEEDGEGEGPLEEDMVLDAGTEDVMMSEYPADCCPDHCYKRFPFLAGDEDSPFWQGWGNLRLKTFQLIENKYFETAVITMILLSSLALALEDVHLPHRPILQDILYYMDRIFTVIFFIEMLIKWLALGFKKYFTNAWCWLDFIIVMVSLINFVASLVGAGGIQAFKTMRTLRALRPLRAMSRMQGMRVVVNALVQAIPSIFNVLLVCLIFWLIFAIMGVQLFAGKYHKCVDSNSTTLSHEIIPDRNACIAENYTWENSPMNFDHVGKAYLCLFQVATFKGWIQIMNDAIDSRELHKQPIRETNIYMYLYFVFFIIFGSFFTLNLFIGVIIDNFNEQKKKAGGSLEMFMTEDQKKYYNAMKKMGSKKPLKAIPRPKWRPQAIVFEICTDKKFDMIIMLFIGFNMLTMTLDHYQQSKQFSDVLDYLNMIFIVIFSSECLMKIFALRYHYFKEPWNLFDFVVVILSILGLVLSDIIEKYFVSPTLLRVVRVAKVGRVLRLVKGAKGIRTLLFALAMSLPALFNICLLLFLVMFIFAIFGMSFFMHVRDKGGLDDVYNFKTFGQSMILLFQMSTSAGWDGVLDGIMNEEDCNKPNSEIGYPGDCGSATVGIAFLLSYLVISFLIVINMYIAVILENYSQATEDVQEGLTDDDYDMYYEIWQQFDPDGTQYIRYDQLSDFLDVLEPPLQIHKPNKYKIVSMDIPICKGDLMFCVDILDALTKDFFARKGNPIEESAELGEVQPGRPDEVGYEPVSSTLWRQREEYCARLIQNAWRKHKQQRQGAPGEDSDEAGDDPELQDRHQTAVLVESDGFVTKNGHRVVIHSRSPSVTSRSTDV
# Excerpt: as §1, §2, §3
# rNaV1.3 = test: Two-electrode voltage-clamp of NaV1.3 expressed in Xenopus laevis oocytes; assay type: cell-based, rat; settings: 10 μM toxin
# Excerpt: as §1, with “Oocytes were injected with 50 nL of cRNA at a concentration of 1 ng/nL using a microinjector (Drummond Scientific Company, Broomall, PA, USA). The oocytes were incubated in a solution containing (mM) the following: NaCl, 96; KCl, 2; CaCl2, 1.8; MgCl2, 2; and HEPES, 5 (pH 7.4). This solution was supplemented with 50 mg/L gentamicin sulfate.” left out
# Two-electrode voltage-clamp recordings were performed at room temperature (18–22 °C) using a GeneClamp 500 amplifier (Molecular Devices, San Jose, CA, USA) controlled by a pClamp data acquisition system (Axon Instruments, Union City, CA, USA). Whole-cell currents from oocytes were recorded 1–4 d after mRNA injection. […]
# For the electrophysiological analysis of toxins, a number of protocols were applied from a holding potential of −90 mV with a start-to-start frequency of 0.2 Hz. […] The current–voltage relationships were determined by 50-ms step depolarizations between −90 and 70 mV, using 5 mV increments. […] I30ms/Ipeak was measured at the same test voltage after addition of the toxin. […]
# [3] = test system: NaV channels (NaV1.1–NaV1.6, NaV1.8, BgNaV1, VdNaV1); test: Electrophysiological screening on nine NaV subtypes (overall statements); assay type: cell-based; settings: for modulation of NaV channels (in words): 10 μM toxin, Xenopus oocytes; for phyla selectivity (in words): mammalian vs. insect/arachnid, 10 μM
# Excerpt: as §1, §2, §3
# [4] = Secondary structure content by CD spectroscopy; assay type: physicochemical; settings: water, 20 °C; for Unordered / α-Helices αD / α-Helices αR / α-Helices αtot: CONTIN; for α-Helices αD: distorted; for α-Helices αR: regular; for α-Helices αtot: sum
# Procedure: CD spectra were measured in the range from 320 to 190 nm with a Chirascan-plus spectropolarimeter (Applied Photophysics, Leatherhead, UK). The instrument was calibrated with 10-camphorsulfonic acid ammonium salt, and a ratio of 2:1 was found between the positive CD band at 290 nm and the negative CD band at 192 nm. The measurements were carried out in bidistilled water at 20 °C using 0.1- and 1-cm path length cells in amide and aromatic regions, respectively. In the amide region (190–240 nm) of the CD spectrum, molar ellipticity [θ]λ (deg cm^2 dmol^−1) was calculated as [θ]λ = θobs × MRW/10 × C × L, where θobs is the observed ellipticity in degrees, MRW is the mean amino acid residue weight of 110 Da, L is the path length (cm), and C is the protein concentration (g/mL). In the aromatic region (240–320 nm) of the CD spectrum, results were expressed as molar ellipticity (the average molecular masses of RpII, RTX-III, and RTX-VI are 5378, 5287, and 5240 Da, respectively). The secondary structure contents were determined according to the method of Provencher and Glöckner, using their CONTIN program.
# [5] = amplitude of toxin-induced effect at 30 ms (I30ms), Hill fit, Xenopus oocytes, means ± sem, n ≥ 5
Substance,EC50 (mNaV1.6) [nM],LD50 (mice [1]; ref [8]) [mg/kg],toxicity in mice (in words) (mice [2]; CD-1 mice),EC50 (rNaV1.2; [5]) [nM],EC50 (BgNaV1) [nM],effect on NaV1.3 current (in words) (rNaV1.3),modulation of NaV channels (in words) [3],phyla selectivity (in words) [3],LD50 (mice [1]; ref [10]) [mg/kg],"half-maximal effective concentration (EC50), NaV1.2 (rNaV1.2; [5])",α-helices (in words) [4],Unordered [4] [percentage],α-Helices αD [4] [percentage],α-Helices αR [4] [percentage],α-Helices αtot [4] [percentage],relative potency on NaV1.6 (in words) (mNaV1.6; compared with RTX-III),LD50 (mice [2]; mice) [mg/kg],effect on NaV1.2 current (in words) (rNaV1.2; Xenopus oocytes),"relative activity on NaV1.2 (in words) (rNaV1.2; compared to δ-SHTX-Hcr1f (Figure 6, Table 3))",relative potency on BgNaV1 (in words) (BgNaV1; compared with RTX-III)
"ASCKCDDDGPDVRSATFTGTVDFWNCNEGWEKCTAVYTPVASCCRKKK-NH2 (disulfide 3-43, 5-33, 26-44) [δ-SHTX-Hcr1f]",183 ± 8.2,4.2,consistent with the previously reported data for RpII,79.5 ± 4.3,226 ± 12.3,,,,,,,,,,,,,,,
"H-GNCKCDDEGPYVRTAPLTGYVDLGYCNEGWEKCASYYSPIAECCRKKK-NH2 (disulfide 3-43, 5-33, 26-44) [RTX-III]",382 ± 5.8,,,,978 ± 62.3,exhibited substantial activating effects on NaV1.3; also recorded: acted similarly on NaV1.3,"modulate insect, arachnid (BgNaV1, VdNaV1), and mammalian CNS NaV channels (NaV1.1–NaV1.3, NaV1.6) but not skeletal muscle (NaV1.4), cardiac (NaV1.5), or PNS (NaV1.8) channels; also recorded: did not affect currents of skeletal muscle NaV1.4, cardiac NaV1.5, and PNS NaV1.8 channels",not to be phyla-selective; also recorded: non-phyla-selective,0.0025,Not active,practically absent,40.1,0.4,0.1,0.5,,,,,
"I: TAPLTGYVDLGYCNEGWEKCASYYSPIAECCRKKK-NH2 / II: GNCKCDDEGPYV-OH (disulfide I:13-I:31, I:20-II:5, I:30-II:3) [RTX-VI]",282 ± 7,,,121 ± 19.3,761 ± 25.6,abolished its effect on the NaV1.3 current,"modulate insect, arachnid (BgNaV1, VdNaV1), and mammalian CNS NaV channels (NaV1.1–NaV1.3, NaV1.6) but not skeletal muscle (NaV1.4), cardiac (NaV1.5), or PNS (NaV1.8) channels; also recorded: did not affect currents of skeletal muscle NaV1.4, cardiac NaV1.5, and PNS NaV1.8 channels",not to be phyla-selective; also recorded: non-phyla-selective,,,practically absent,38.3,0.3,0.0,0.3,more potent inhibitor of both NaV1.6 and BgNaV1 channels than RTX-III,> 10,"modulated another subtype of the CNS channels, NaV1.2; also recorded: enhanced current through NaV1.2",lower activity on the NaV1.2 subtype compared to δ-SHTX-Hcr1f,more potent inhibitor of both NaV1.6 and BgNaV1 channels than RTX-III
